Source: ChEMBL document CHEMBL1143353, “Pyrazolo[1,5-a]-1,3,5-triazine as a purine bioisostere: access to potent cyclin-dependent kinase inhibitor (R)-roscovitine analogue” (J Med Chem, 2009)

Legend:
IGROV-1 = assay: cells; conditions: Homo sapiens, IGROV-1, 72 h
Description: Antiproliferative activity against human IGROV1 cells after 72 hrs by ViaLight assay

HOP-62 = assay: cells; conditions: Homo sapiens, HOP-62, 72 h
Description: Antiproliferative activity against human HOP62 cells after 72 hrs by ViaLight assay

OVCAR-4 = assay: cells; conditions: Homo sapiens, OVCAR-4, 72 h
Description: Antiproliferative activity against human OVCAR4 cells after 72 hrs by ViaLight assay

MDA-MB-435 = assay: cells; conditions: Homo sapiens, MDA-MB-435, 72 h
Description: Antiproliferative activity against human MDA-MB-435 cells after 72 hrs by ViaLight assay

cells [1] = conditions: Homo sapiens, Hs-578T, 72 h
Description: Antiproliferative activity against human Hs 578T cells after 72 hrs by ViaLight assay

UACC-62 = assay: cells; conditions: Homo sapiens, UACC-62, 72 h
Description: Antiproliferative activity against human UACC62 cells after 72 hrs by ViaLight assay

NCI-H460 = assay: cells; conditions: Homo sapiens, NCI-H460, 72 h
Description: Antiproliferative activity against human NCI-H460 cells after 72 hrs by ViaLight assay

HCC 2998 = assay: cells; conditions: Homo sapiens, HCC 2998, 72 h
Description: Antiproliferative activity against human HCC2998 cells after 72 hrs by ViaLight assay

PC-3 = assay: cells; conditions: Homo sapiens, PC-3, 72 h
Description: Antiproliferative activity against human PC3 cells after 72 hrs by ViaLight assay

OVCAR-3 = assay: cells; conditions: Homo sapiens, OVCAR-3, 72 h
Description: Antiproliferative activity against human OVCAR-3 cells after 72 hrs by ViaLight assay

DU-145 = assay: cells; conditions: Homo sapiens, DU-145, 72 h
Description: Antiproliferative activity against human DU145 cells after 72 hrs by ViaLight assay

cells [2] = conditions: Homo sapiens, HL-60, 72 h
Description: Antiproliferative activity against human HL60(TB) cells after 72 hrs by ViaLight assay

HEK293 = assay: Antiproliferative activity against human HEK293 cells after 48 hrs by MTS reduction assay; type: cell-based; conditions: HEK293, 48 h
SK-MEL-2 = assay: cells; conditions: Homo sapiens, SK-MEL-2, 72 h
Description: Antiproliferative activity against human SK-MEL-2 cells after 72 hrs by ViaLight assay

MDA-MB-231 = assay: cells; conditions: Homo sapiens, MDA-MB-231, 72 h
Description: Antiproliferative activity against human MDA-MB-231 cells after 72 hrs by ViaLight assay

HCT-116 = assay: cells; conditions: Homo sapiens, HCT-116, 72 h
Description: Antiproliferative activity against human HCT116 cells after 72 hrs by ViaLight assay

A549 = assay: cells; conditions: Homo sapiens, A549, 72 h
Description: Antiproliferative activity against human A549 cells after 72 hrs by ViaLight assay

cells [3] = conditions: Homo sapiens, RPMI8266, 72 h
Description: Antiproliferative activity against human RPMI8266 cells after 72 hrs by ViaLight assay

HT-29 = assay: cells; conditions: Homo sapiens, HT-29, 72 h
Description: Antiproliferative activity against human HT29 cells after 72 hrs by ViaLight assay

NCI-H226 = assay: cells; conditions: Homo sapiens, NCI-H226, 72 h
Description: Antiproliferative activity against human NCI-H226 cells after 72 hrs by ViaLight assay

SNB-19 = assay: cells; conditions: Homo sapiens, SNB-19, 72 h
Description: Antiproliferative activity against human SNB19 cells after 72 hrs by ViaLight assay

A498 = assay: cells; conditions: Homo sapiens, A498, 72 h
Description: Antiproliferative activity against human A498 cells after 72 hrs by ViaLight assay

COLO 205 = assay: cells; conditions: Homo sapiens, COLO 205, 72 h
Description: Antiproliferative activity against human COLO205 cells after 72 hrs by ViaLight assay

SF-295 = assay: cells; conditions: Homo sapiens, SF-295, 72 h
Description: Antiproliferative activity against human SF295 cells after 72 hrs by ViaLight assay

SR = assay: cells; conditions: Homo sapiens, 72 h
Description: Antiproliferative activity against human SR cells after 72 hrs by ViaLight assay

U-251 = assay: cells; conditions: Homo sapiens, U-251, 72 h
Description: Antiproliferative activity against human U251 cells after 72 hrs by ViaLight assay

786-0 = assay: cells; conditions: Homo sapiens, 786-0, 72 h
Description: Antiproliferative activity against human 786-0 cells after 72 hrs by ViaLight assay

M14 = assay: cells; conditions: Homo sapiens, M14, 72 h
Description: Antiproliferative activity against human M14 cells after 72 hrs by ViaLight assay

UO-31 = assay: cells; conditions: Homo sapiens, UO-31, 72 h
Description: Antiproliferative activity against human UO31 cells after 72 hrs by ViaLight assay

CC[C@H](CO)Nc1nc(NCc2ccccc2)n2ncc(C(C)C)c2n1 gave a GI50 (IGROV-1) of 0.78 µM, a TGI (IGROV-1) greater than 100 µM and a CC50 (IGROV-1; read-out: LC50) greater than 100 µM. It also gave a GI50 (IGROV-1; read-out: pGI50 (converted)) of 0.776 µM, a CC50 (IGROV-1; read-out: pLC50 (converted)) of 100 µM and a TGI (IGROV-1; read-out: pTGI) of 100 µM. For the same molecule, the GI50 (HOP-62) was 2.1 µM, the TGI (HOP-62) was 8.72 µM and the CC50 (HOP-62; read-out: LC50) was greater than 100 µM. The GI50 (HOP-62; read-out: pGI50 (converted)) was 2.09 µM, the CC50 (HOP-62; read-out: pLC50 (converted)) was 100 µM and the TGI (HOP-62; read-out: pTGI) was 1.1 µM. For the same molecule, the GI50 (OVCAR-4) was 2.57 µM, the TGI (OVCAR-4) was 37 µM and the CC50 (OVCAR-4; read-out: LC50) was greater than 100 µM. The GI50 (OVCAR-4; read-out: pGI50 (converted)) was 2.63 µM, the CC50 (OVCAR-4; read-out: pLC50 (converted)) was 100 µM and the TGI (OVCAR-4; read-out: pTGI) was 0.372 µM. It also gave a GI50 (MDA-MB-435) of 2.06 µM, a TGI (MDA-MB-435) of 10.1 µM and a CC50 (MDA-MB-435; read-out: LC50) of 41.4 µM. It also gave a GI50 (MDA-MB-435; read-out: pGI50 (converted)) of 2.09 µM, a CC50 (MDA-MB-435; read-out: pLC50 (converted)) of 41.7 µM and a TGI (MDA-MB-435; read-out: pTGI) of 10 µM. For the same molecule, the GI50 (cells [1]) was 1.59 µM, the TGI (cells [1]) was 6.16 µM and the CC50 (cells [1]; read-out: LC50) was greater than 100 µM. The GI50 (cells [1]; read-out: pGI50 (converted)) was 1.58 µM, the CC50 (cells [1]; read-out: pLC50 (converted)) was 100 µM and the TGI (cells [1]; read-out: pTGI) was 6.17 µM. It also gave a GI50 (UACC-62) of 1.37 µM, a TGI (UACC-62) of 5.5 µM and a CC50 (UACC-62; read-out: LC50) of 31.1 µM. For the same molecule, the GI50 (UACC-62; read-out: pGI50 (converted)) was 1.38 µM, the CC50 (UACC-62; read-out: pLC50 (converted)) was 30.9 µM and the TGI (UACC-62; read-out: pTGI) was 5.5 µM. The GI50 (NCI-H460) was 1.05 µM, the TGI (NCI-H460) was 10.9 µM and the CC50 (NCI-H460; read-out: LC50) was greater than 100 µM. It also gave a GI50 (NCI-H460; read-out: pGI50 (converted)) of 1.05 µM, a CC50 (NCI-H460; read-out: pLC50 (converted)) of 100 µM and a TGI (NCI-H460; read-out: pTGI) of 11 µM. For the same molecule, the GI50 (HCC 2998) was 1.2 µM, the TGI (HCC 2998) was 3.27 µM and the CC50 (HCC 2998; read-out: LC50) was 8.96 µM. The GI50 (HCC 2998; read-out: pGI50 (converted)) was 1.2 µM, the CC50 (HCC 2998; read-out: pLC50 (converted)) was 8.71 µM and the TGI (HCC 2998; read-out: pTGI) was 3.24 µM. It also gave a GI50 (PC-3) of 0.93 µM, a TGI (PC-3) of 12.3 µM and a CC50 (PC-3; read-out: LC50) greater than 100 µM. For the same molecule, the GI50 (PC-3; read-out: pGI50 (converted)) was 0.117 µM, the CC50 (PC-3; read-out: pLC50 (converted)) was 100 µM and the TGI (PC-3; read-out: pTGI) was 0.123 µM. The GI50 (OVCAR-3) was 1.15 µM, the TGI (OVCAR-3) was 4.6 µM and the CC50 (OVCAR-3; read-out: LC50) was 42.4 µM. The GI50 (OVCAR-3; read-out: pGI50 (converted)) was 1.45 µM, the CC50 (OVCAR-3; read-out: pLC50 (converted)) was 42.7 µM and the TGI (OVCAR-3; read-out: pTGI) was 4.57 µM. The GI50 (DU-145) was 1.3 µM, the TGI (DU-145) was 9.52 µM and the CC50 (DU-145; read-out: LC50) was greater than 100 µM. It also gave a GI50 (DU-145; read-out: pGI50 (converted)) of 2.63 µM, a CC50 (DU-145; read-out: pLC50 (converted)) of 100 µM and a TGI (DU-145; read-out: pTGI) of 9.55 µM. For the same molecule, the GI50 (cells [2]) was 0.41 µM, the TGI (cells [2]) was 2.68 µM and the CC50 (cells [2]; read-out: LC50) was greater than 100 µM. For the same molecule, the GI50 (cells [2]; read-out: pGI50 (converted)) was 0.407 µM, the CC50 (cells [2]; read-out: pLC50 (converted)) was 100 µM and the TGI (cells [2]; read-out: pTGI) was 2.69 µM. It also gave an IC50 (HEK293) of 7.6 µM, a GI50 (SK-MEL-2) of 1.47 µM and a TGI (SK-MEL-2) of 6 µM. For the same molecule, the CC50 (SK-MEL-2; read-out: LC50) was greater than 100 µM, the GI50 (SK-MEL-2; read-out: pGI50 (converted)) was 1.48 µM and the CC50 (SK-MEL-2; read-out: pLC50 (converted)) was 100 µM. For the same molecule, the TGI (SK-MEL-2; read-out: pTGI) was 6.03 µM, the GI50 (MDA-MB-231) was 2.37 µM and the TGI (MDA-MB-231) was 9.47 µM. For the same molecule, the CC50 (MDA-MB-231; read-out: LC50) was greater than 100 µM, the GI50 (MDA-MB-231; read-out: pGI50 (converted)) was 2.4 µM and the CC50 (MDA-MB-231; read-out: pLC50 (converted)) was 100 µM. The TGI (MDA-MB-231; read-out: pTGI) was 9.55 µM, the GI50 (HCT-116) was 0.51 µM and the TGI (HCT-116) was 15 µM. For the same molecule, the CC50 (HCT-116; read-out: LC50) was greater than 100 µM, the GI50 (HCT-116; read-out: pGI50 (converted)) was 0.513 µM and the CC50 (HCT-116; read-out: pLC50 (converted)) was 100 µM. It also gave a TGI (HCT-116; read-out: pTGI) of 15.1 µM, a GI50 (A549) of 1.58 µM and a TGI (A549) of 41.4 µM. The CC50 (A549; read-out: LC50) was greater than 100 µM, the GI50 (A549; read-out: pGI50 (converted)) was 2.51 µM and the CC50 (A549; read-out: pLC50 (converted)) was 100 µM. It also gave a TGI (A549; read-out: pTGI) of 41.7 µM, a GI50 (cells [3]) of 2.23 µM and a TGI (cells [3]) of 6.93 µM. The CC50 (cells [3]; read-out: LC50) was greater than 100 µM, the GI50 (cells [3]; read-out: pGI50 (converted)) was 2.24 µM and the CC50 (cells [3]; read-out: pLC50 (converted)) was 100 µM. It also gave a TGI (cells [3]; read-out: pTGI) of 6.92 µM, a GI50 (HT-29) of 2 µM and a TGI (HT-29) of 15.5 µM. It also gave a CC50 (HT-29; read-out: LC50) greater than 100 µM, a GI50 (HT-29; read-out: pGI50 (converted)) of 2 µM and a CC50 (HT-29; read-out: pLC50 (converted)) of 100 µM. The TGI (HT-29; read-out: pTGI) was 15.5 µM, the GI50 (NCI-H226) was 1.84 µM and the TGI (NCI-H226) was 10.1 µM. It also gave a CC50 (NCI-H226; read-out: LC50) greater than 100 µM, a GI50 (NCI-H226; read-out: pGI50 (converted)) of 1.86 µM and a CC50 (NCI-H226; read-out: pLC50 (converted)) of 100 µM. For the same molecule, the TGI (NCI-H226; read-out: pTGI) was 10.5 µM, the GI50 (SNB-19) was 1.44 µM and the TGI (SNB-19) was 12.3 µM. The CC50 (SNB-19; read-out: LC50) was greater than 100 µM, the GI50 (SNB-19; read-out: pGI50 (converted)) was 1.15 µM and the CC50 (SNB-19; read-out: pLC50 (converted)) was 100 µM. It also gave a TGI (SNB-19; read-out: pTGI) of 12.3 µM, a GI50 (A498) of 1.25 µM and a TGI (A498) of 3.44 µM. For the same molecule, the CC50 (A498; read-out: LC50) was 9.47 µM, the GI50 (A498; read-out: pGI50 (converted)) was 1.12 µM and the CC50 (A498; read-out: pLC50 (converted)) was 9.55 µM. The TGI (A498; read-out: pTGI) was 3.31 µM, the GI50 (COLO 205) was 1.12 µM and the TGI (COLO 205) was 3.15 µM. The CC50 (COLO 205; read-out: LC50) was 8.86 µM, the GI50 (COLO 205; read-out: pGI50 (converted)) was 1.12 µM and the CC50 (COLO 205; read-out: pLC50 (converted)) was 8.71 µM. For the same molecule, the TGI (COLO 205; read-out: pTGI) was 3.16 µM, the GI50 (SF-295) was 0.81 µM and the TGI (SF-295) was 4.74 µM. For the same molecule, the GI50 (SF-295; read-out: pGI50 (converted)) was 0.813 µM, the TGI (SF-295; read-out: pTGI) was 4.79 µM and the GI50 (SR) was 0.25 µM. It also gave a TGI (SR) of 1.59 µM, a CC50 (SR; read-out: LC50) greater than 100 µM and a GI50 (SR; read-out: pGI50 (converted)) of 2.51 µM. The CC50 (SR; read-out: pLC50 (converted)) was 100 µM, the TGI (SR; read-out: pTGI) was 1.58 µM and the GI50 (U-251) was 1.4 µM. The TGI (U-251) was 10.5 µM, the CC50 (U-251; read-out: LC50) was greater than 100 µM and the GI50 (U-251; read-out: pGI50 (converted)) was 1.41 µM. The CC50 (U-251; read-out: pLC50 (converted)) was 100 µM, the TGI (U-251; read-out: pTGI) was 10.5 µM and the GI50 (786-0) was 1.98 µM. For the same molecule, the TGI (786-0) was 10.7 µM, the CC50 (786-0; read-out: LC50) was greater than 100 µM and the GI50 (786-0; read-out: pGI50 (converted)) was 1.86 µM. It also gave a CC50 (786-0; read-out: pLC50 (converted)) of 100 µM, a TGI (786-0; read-out: pTGI) of 0.135 µM and a GI50 (M14) of 2 µM. The TGI (M14) was 7.93 µM, the CC50 (M14; read-out: LC50) was 34.3 µM and the GI50 (M14; read-out: pGI50 (converted)) was 2 µM. For the same molecule, the CC50 (M14; read-out: pLC50 (converted)) was 34.7 µM, the TGI (M14; read-out: pTGI) was 7.94 µM and the GI50 (UO-31) was 1.59 µM. The TGI (UO-31) was greater than 100 µM, the GI50 (UO-31; read-out: pGI50 (converted)) was 1.58 µM and the TGI (UO-31; read-out: pTGI) was 100 µM.
